This is an account of results in patent publication US20170355705A1 (GlaxoSmithKline Intellectual Property (No.2) Limited, priority 2014, published 2017).

The experiment has as its target T1, SIRT1 (Homo sapiens, UniProt Q96EB6).
T1 sequence (Q96EB6 1-747): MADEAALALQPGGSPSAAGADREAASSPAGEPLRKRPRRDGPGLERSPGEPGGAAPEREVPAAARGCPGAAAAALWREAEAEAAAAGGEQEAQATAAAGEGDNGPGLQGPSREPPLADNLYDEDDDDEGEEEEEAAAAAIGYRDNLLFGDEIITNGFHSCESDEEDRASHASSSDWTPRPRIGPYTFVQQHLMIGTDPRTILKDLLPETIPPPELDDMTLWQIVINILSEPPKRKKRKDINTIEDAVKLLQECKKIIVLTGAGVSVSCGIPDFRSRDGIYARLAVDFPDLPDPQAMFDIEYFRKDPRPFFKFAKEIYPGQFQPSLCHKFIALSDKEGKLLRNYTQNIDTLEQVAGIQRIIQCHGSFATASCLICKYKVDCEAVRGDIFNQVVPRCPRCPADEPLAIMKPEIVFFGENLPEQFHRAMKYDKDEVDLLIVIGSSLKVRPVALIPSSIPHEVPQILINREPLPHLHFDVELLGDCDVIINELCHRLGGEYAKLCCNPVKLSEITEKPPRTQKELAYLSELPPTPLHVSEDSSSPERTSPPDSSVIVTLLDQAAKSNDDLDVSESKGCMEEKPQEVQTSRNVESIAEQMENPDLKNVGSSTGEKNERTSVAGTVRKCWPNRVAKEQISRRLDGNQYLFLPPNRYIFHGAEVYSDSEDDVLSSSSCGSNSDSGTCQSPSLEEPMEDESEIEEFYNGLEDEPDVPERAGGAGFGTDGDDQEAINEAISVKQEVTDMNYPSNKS
In words: Trp mass spectrometry assay of SIRT1 activity (EC1.5, percent maximum activation). Format: biochemical. To be noted: Trp mass spectrometry assay; for TRP Activity (EC1.5): EC1.5 = concentration giving 150% activation of SIRT1. The method in brief: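 MS readout: O-acetyl-ADP-ribose (or deacetylated peptide) formed by His-tagged SIRT1 (BL21(DE3)-expressed) on 5TMR-Trp p53-based peptide, 25 min, formic acid stop. EC1.5 = concentration raising activity 50% over no-compound control; % max activation vs control = 100%.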

The mark [1] stands for this setting: percent maximum activation of SIRT1.
Setting [2] is: 0.5 μM peptide substrate, 120 μM βNAD+, 10 nM SIRT1, 25 minutes at 25° C.

Molecules are shown by their SMILES.

Take `O=C(Nc1cnccn1)N1c2nc(N3CCC(C(F)(F)F)CC3)ccc2N2CC[C@H]1C2` [Example 191, (4S)-N-(pyrazin-2-yl)-7-(4-(trifluoromethyl)piperidin-1-yl)-3,4-dihydro-1,4-methanopyrido[2,3-b][1,4]diazepine-5(2H)-carboxamide]: the “TRP Activity (EC1.5)” value is “A (EC1.5<1 μM)”. In addition, the “TRP MAX RESP (percent maximum fold activation)” value under setting [1] was “A (Fold activation ≧150%)”.
`Cc1cncc(NC(=O)N2c3nc(-c4ccnc(C)c4)ccc3N3CC[C@H]2C3)c1` [Example 194, (4S)-N-(5-methylpyridin-3-yl)-7-(2-methylpyridin-4-yl)-3,4-dihydro-1,4-methanopyrido[2,3-b][1,4]diazepine-5(2H)-carboxamide]: the “TRP Activity (EC1.5)” value is listed as “B (EC1.5 1-25 μM)”. Moreover, the “TRP MAX RESP (percent maximum fold activation)” value under setting [1] was “A (Fold activation ≧150%)”.
Consider `Cc1cc(-c2ccc3c(n2)N(C(=O)Nc2ccc4c(c2)OCO4)[C@H]2CCN3C2)ccn1` [Example 195, (4S)-N-(benzo[d][1,3]dioxol-5-yl)-7-(2-methylpyridin-4-yl)-3,4-dihydro-1,4-methanopyrido[2,3-b][1,4]diazepine-5(2H)-carboxamide], for which the “TRP Activity (EC1.5)” value is listed as “A (EC1.5<1 μM)”. Further, the “TRP MAX RESP (percent maximum fold activation)” value under setting [1] is recorded as “A (Fold activation ≧150%)”.
Taken in the same sequence, the figures for `Cc1cc(-c2ccc3c(n2)N(C(=O)NCCc2ccccn2)[C@H]2CCN3C2)ccn1.Cl` [Example 196, (4S)-7-(2-methylpyridin-4-yl)-N-(2-(pyridin-2-yl)ethyl)-3,4-dihydro-1,4-methanopyrido[2,3-b][1,4]diazepine-5(2H)-carboxamide hydrochloride] were “C (EC1.5>25 μM)” and “B (Fold Activation <150%)”.
The like results for `O=C(Nc1cnccn1)N1c2nc(N3CCNCC3)ccc2N2CC[C@H]1C2` [Example 197, (4S)-7-(piperazin-1-yl)-N-(pyrazin-2-yl)-3,4-dihydro-1,4-methanopyrido[2,3-b][1,4]diazepine-5(2H)-carboxamide] were, in that order, “C (EC1.5>25 μM)” and “B (Fold Activation <150%)”.
The like results for `CC1CCN(c2ccc3c(n2)N(C(=O)Nc2cnccn2)[C@H]2CCN3C2)CC1` [Example 198, (4S)-7-(4-methylpiperidin-1-yl)-N-(pyrazin-2-yl)-3,4-dihydro-1,4-methanopyrido[2,3-b][1,4]diazepine-5(2H)-carboxamide] were, in that order, “B (EC1.5 1-25 μM)” and “A (Fold activation ≧150%)”.
For the compound `CCn1cc(-c2nc3c(cc2Cl)N2CC[C@@H](C2)N3C(=O)Nc2ccnc(OC[C@@H](O)CO)c2)cn1` [Example 199, (4S)-8-chloro-N-(2-((S)-2,3-dihydroxypropoxy)pyridin-4-yl)-7-(1-ethyl-1H-pyrazol-4-yl)-3,4-dihydro-1,4-methanopyrido[2,3-b][1,4]diazepine-5(2H)-carboxamide], the “TRP Activity (EC1.5)” value is on record as “B (EC1.5 1-25 μM)”. For the same compound, the “TRP MAX RESP (percent maximum fold activation)” value under setting [1] is listed as “A (Fold activation ≧150%)”.
Taken in the same sequence, the figures for `Cc1ccc(-c2ccc3c(n2)N(C(=O)Nc2cnccn2)[C@H]2CCN3C2)c(C)n1` [Example 200, (4S)-7-(2,6-dimethylpyridin-3-yl)-N-(pyrazin-2-yl)-3,4-dihydro-1,4-methanopyrido[2,3-b][1,4]diazepine-5(2H)-carboxamide] were “B (EC1.5 1-25 μM)” and “A (Fold activation ≧150%)”.
In the case of `Cc1ccc(-c2ccc3c(n2)N(C(=O)Nc2cccnc2)[C@H]2CCN3C2)c(C)n1` [Example 201, (4S)-7-(2,6-dimethylpyridin-3-yl)-N-(pyridin-3-yl)-3,4-dihydro-1,4-methanopyrido[2,3-b][1,4]diazepine-5(2H)-carboxamide], under setting [2], the “TRP Activity (EC1.5, concentration of test compound that results in 150% activation of SIRT1)” value is reported as “B (EC1.5 1-25 μM)” and the “TRP MAX RESP (percent maximum fold activation)” value is given as “A (Fold activation ≧150%)”.
As for `Cc1cc(-c2ccc3c(n2)N(C(=O)Nc2nc4scc(C)n4n2)[C@H]2CCN3C2)ccn1` [Example 202, (4S)-7-(2-methylpyridin-4-yl)-N-(6-methylthiazolo[3,2-b][1,2,4]triazol-2-yl)-3,4-dihydro-1,4-methanopyrido[2,3-b][1,4]diazepine-5(2H)-carboxamide], under setting [2], the “TRP Activity (EC1.5, concentration of test compound that results in 150% activation of SIRT1)” value was “B (EC1.5 1-25 μM)” and the “TRP MAX RESP (percent maximum fold activation)” value is reported as “A (Fold activation ≧150%)”.
Consider `O=C(Nc1cccnc1)N1c2nc(N3CCOC[C@@H]3CO)ccc2N2CC[C@H]1C2` [Example 203, (4S)-7-((S)-3-(hydroxymethyl)morpholino)-N-(pyridin-3-yl)-3,4-dihydro-1,4-methanopyrido[2,3-b][1,4]diazepine-5(2H)-carboxamide], for which, under setting [2], the “TRP Activity (EC1.5, concentration of test compound that results in 150% activation of SIRT1)” value is on record as “C (EC1.5>25 μM)” and the “TRP MAX RESP (percent maximum fold activation)” value was “B (Fold Activation <150%)”.
In the case of `C[C@@H]1COCCN1c1ccc2c(n1)N(C(=O)Nc1cccnc1)[C@H]1CCN2C1` [Example 204, (4S)-7-((R)-3-methylmorpholino)-N-(pyridin-3-yl)-3,4-dihydro-1,4-methano-pyrido[2,3-b][1,4]diazepine-5(2H)-carboxamide], under setting [2], the “TRP Activity (EC1.5, concentration of test compound that results in 150% activation of SIRT1)” value was “B (EC1.5 1-25 μM)” and the “TRP MAX RESP (percent maximum fold activation)” value is “A (Fold activation ≧150%)”.
For `Cc1ccc(-c2ccc3c(n2)N(C(=O)Nc2cncc(OC[C@@H](O)CO)n2)[C@H]2CCN3C2)cn1` [Example 205, (4S)-N-(6-((S)-2,3-dihydroxypropoxy)pyrazin-2-yl)-7-(6-methylpyridin-3-yl)-3,4-dihydro-1,4-methanopyrido[2,3-b][1,4]diazepine-5(2H)-carboxamide], under setting [2], the “TRP Activity (EC1.5, concentration of test compound that results in 150% activation of SIRT1)” value is on record as “B (EC1.5 1-25 μM)” and the “TRP MAX RESP (percent maximum fold activation)” value is reported as “A (Fold activation ≧150%)”.
In the case of `CN1CCN(c2ccc3c(n2)N(C(=O)Nc2cnccn2)[C@H]2CCN3C2)CC1` [Example 206, (4S)-7-(4-methylpiperazin-1-yl)-N-(pyrazin-2-yl)-3,4-dihydro-1,4-methanopyrido[2,3-b][1,4]diazepine-5(2H)-carboxamide], under setting [2], the “TRP Activity (EC1.5, concentration of test compound that results in 150% activation of SIRT1)” value is recorded as “B (EC1.5 1-25 μM)” and the “TRP MAX RESP (percent maximum fold activation)” value was “A (Fold activation ≧150%)”.
As for `O=C(Nc1cnccn1)N1c2nc(-c3ccc(C(F)(F)F)nc3)ccc2N2CC[C@H]1C2` [Example 208, (4S)-N-(pyrazin-2-yl)-7-(6-(trifluoromethyl)pyridin-3-yl)-3,4-dihydro-1,4-methanopyrido[2,3-b][1,4]diazepine-5(2H)-carboxamide], under setting [2], the “TRP Activity (EC1.5, concentration of test compound that results in 150% activation of SIRT1)” value is recorded as “B (EC1.5 1-25 μM)” and the “TRP MAX RESP (percent maximum fold activation)” value is “A (Fold activation ≧150%)”.
`Cc1ccc(-c2ccc3c(n2)N(C(=O)Nc2cccc4cnccc24)[C@H]2CCN3C2)cn1` [Example 209, (4S)-N-(isoquinolin-5-yl)-7-(6-methylpyridin-3-yl)-3,4-dihydro-1,4-methanopyrido[2,3-b][1,4]diazepine-5(2H)-carboxamide]: under setting [2], the “TRP Activity (EC1.5, concentration of test compound that results in 150% activation of SIRT1)” value is recorded as “B (EC1.5 1-25 μM)” and the “TRP MAX RESP (percent maximum fold activation)” value is reported as “A (Fold activation ≧150%)”.
With `Cc1cc(-c2nc3c(cc2Cl)N2CC[C@@H](C2)N3C(=O)Nc2cccnc2)ccn1` [Example 210, (9S)-4-chloro-5-(2-methylpyridin-4-yl)-N-(pyridin-3-yl)-1,6,8-triazatricyclo[7.2.1.0{2,7}]dodeca-2,4,6-triene-8-carboxamide], under setting [2], the “TRP Activity (EC1.5, concentration of test compound that results in 150% activation of SIRT1)” value is reported as “B (EC1.5 1-25 μM)” and the “TRP MAX RESP (percent maximum fold activation)” value is reported as “A (Fold activation ≧150%)”.
In the case of `CC1(C)CN(c2ccc3c(n2)N(C(=O)Nc2cnccn2)[C@H]2CCN3C2)CCO1` [Example 211, (4S)-7-(2,2-dimethylmorpholino)-N-(pyrazin-2-yl)-3,4-dihydro-1,4-methanopyrido[2,3-b][1,4]diazepine-5(2H)-carboxamide], under setting [2], the “TRP Activity (EC1.5, concentration of test compound that results in 150% activation of SIRT1)” value is “A (EC1.5<1 μM)” and the “TRP MAX RESP (percent maximum fold activation)” value is “A (Fold activation ≧150%)”.
With `Cc1cc(-c2ccc3c(n2)N(C(=O)Nc2cnccn2)[C@H]2CCN3C2)cnn1` [Example 212, (4S)-7-(6-methylpyridazin-4-yl)-N-(pyrazin-2-yl)-3,4-dihydro-1,4-methanopyrido[2,3-b][1,4]diazepine-5(2H)-carboxamide], under setting [2], the “TRP Activity (EC1.5, concentration of test compound that results in 150% activation of SIRT1)” value is “B (EC1.5 1-25 μM)” and the “TRP MAX RESP (percent maximum fold activation)” value is listed as “A (Fold activation ≧150%)”.
